Experimental data published in paper PMC11512107, “Structural and biochemical analysis of ligand binding in yeast Niemann–Pick type C1–related protein” (Life Science Alliance, 2024).
“And” between values parts separate entries of the source, which are not always exact repeats. Equal entries are not always repeated. “Also recorded” adds a separate entry of the source. Values belong to the molecule of their own block, whether it stands above or below them.

How the values were obtained:
NTD of NCR1 [1] = target: T1, NTD of NCR1 (Saccharomyces cerevisiae, UniProt Q12200); test: In vitro liposome crosslinking assay of pac-lipids with the NTD; type: binding; settings: liposomes with 1.5 mol% pac-lipid (1 μM), 1.5 μM NTD, average ratio
T1 construct: residues 1–249, UniProt: Q12200; thrombin cleavage site (C); deca-histidine tag (C, cleaved yes); made in house; host or cells: Saccharomyces cerevisiae strain DSY-5
Source text: In a parallel approach, the substrate scope of the NTD and NPC2 was probed with photo-activatable and clickable (pac) lipids. Pac-lipids contain small chemical modifications for click chemistry reactions, with fluorophores such as AF647 (a structural analog of Alexa Fluor 647), and for UV-activated photo-crosslinking, respectively ([45]). In contrast to NBD-tagged lipids delivered in solution, pac-lipids such as pac-cholesterol (pacChol), pac-phosphatidylcholine (pacPC), pac-sphingosine (pacSph), and pac-ceramide (pacCer) were reconstituted in liposomal membranes (Fig 5A and B). As expected, the delipidated NTD crosslinks with pacChol (average +UV/−UV ratio = 2.11). Crosslinking of the NTD with pacSph (+UV/−UV = 1.73) and, to a lesser extent, with pacCer and pacPC (+UV/−UV = 1.40 and 1.12), respectively, was also detected (Fig 5C and D).
Lipids from stock vials were dissolved in chloroform and mixed at the desired molar ratio. […]
Extruded liposomes were diluted in PBS until a final lipid concentration of 60 μM, including 1 μM pac-lipid. […] Data were evaluated by subtracting background fluorescence, followed by comparing the AF647 signal between crosslinked and non-crosslinked samples, normalized to protein loading based on Coomassie staining. […] Statistics were calculated with the Mann–Whitney U test.

NPC2 [2] = target: T2, NPC2 (Saccharomyces cerevisiae, UniProt Q12408); test: In vitro liposome crosslinking assay of pac-lipids with NPC2; type: binding
T2 construct: residues 1–173, UniProt: Q12408; thrombin cleavage site (C); deca-histidine tag (C, cleaved yes); made in house; host or cells: Saccharomyces cerevisiae strain DSY-5
T2 sequence (Q12408 22-173): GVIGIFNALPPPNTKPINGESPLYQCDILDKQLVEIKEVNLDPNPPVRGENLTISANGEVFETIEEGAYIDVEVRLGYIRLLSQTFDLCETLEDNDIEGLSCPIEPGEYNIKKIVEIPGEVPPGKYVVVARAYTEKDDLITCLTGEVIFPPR
Procedure: To compare with the interaction profile of the NTD, crosslinking assays were also performed with purified, delipidated NPC2 (Fig S4A and B). […] NPC2 crosslinks well with all tested pac-lipids but, as for the NTD, most strongly with pacChol (+UV/−UV ratio = 1.91). Robust and consistent crosslinking with pacSph (+UV/−UV ratio = 1.64), pacCer (+UV/−UV = 1.67), and pacPC (+UV/−UV = 1.63) were observed. The crosslinking efficiency for cholesterol and sphingosine analogs was higher for the NTD, whereas crosslinking with ceramide and PC analogs seemed stronger with NPC2.
Lipids from stock vials were dissolved in chloroform and mixed at the desired molar ratio. For in vitro crosslinking, most liposomes consisted of 88.5 mol% DOPC as carrier lipid, 10 mol% DOPS, and 1.5 mol% respective pac-lipid. The pac-lipids were incorporated into liposomes at low concentrations (1.5 mol%) to ensure homogenous distribution and avoid micelle formation. The solvent was evaporated in a rotary evaporator (Hei-VAP Core, Heidolph) for 30 min at 42°C at 150 rpm to create a thin lipid film. Lipid films were hydrated with filtered and degassed PBS (137 mM NaCl, 2.7 mM KCl, 10 mM Na2HPO4, 1.8 mM KH2PO4, pH 7.4). Solutions of hydrated lipids (with a total lipid concentration of 2 mM) were subjected to five freeze–thaw cycles in liquid nitrogen and warm water (42°C) to facilitate breakup of large structures and support formation of smaller multilamellar vesicles. Lipid solutions were stored at −20°C. Before use, liposomes were extruded by passing 20x through a 100-nm pore size polycarbonate filter (Nuclepore; Whatman) using a hand extruder (Avanti Polar Lipids). Extruded liposomes were stored at 4°C, protected from light, and used within 1–2 d.
Extruded liposomes were diluted in PBS until a final lipid concentration of 60 μM, including 1 μM pac-lipid. Purified proteins were added until a final concentration of 1.5 μM in a reaction volume of 100 μl. Protein–liposome mixtures were incubated in 0.5-ml Eppendorf tubes for 30 min at 37°C at 400 rpm (Comfort thermomixer, Eppendorf), then crosslinked (or not) by exposure to 365-nm UV light for 15 min at 4°C using a 100-W mercury lamp (Blak-Ray B-100AP). After crosslinking, the click reaction was performed by adding 0.7 μl of freshly prepared click mix into the sample tubes. The final concentrations of click reagents in sample tubes were 80 μM CuSO4 (Merck), 3 μM TBTA (Merck), 3 μM AF647-picolyl azide (Jena Bioscience), and 80 μM ascorbic acid (Merck). Fresh stock of ascorbic acid solution in water was prepared every time and added to the click mix immediately before starting the click reaction. Click reactions were allowed to proceed for 2 h at 37°C at 400 rpm with the thermomixer. Then, samples were concentrated in a vacuum evaporator for 30 min set to 30°C and supplemented with 4x Lämmli buffer (250 mM Tris, pH 6.8, 9.2% SDS, 40% glycerol, 0.2% bromophenol blue, 100 mM DTT). Samples were boiled for 5 min at 95°C, and clicked protein–lipid complexes were resolved by SDS–PAGE. After extensive destaining in a destain solution (65% water, 25% isopropanol, and 10% acetic acid), the AF647 (a structural analog of Alexa Fluor 647) and Coomassie images were acquired using the LI-COR Odyssey imaging system. Data were evaluated by subtracting background fluorescence, followed by comparing the AF647 signal between crosslinked and non-crosslinked samples, normalized to protein loading based on Coomassie staining. The resulting values are described as +UV/−UV ratios. Statistics were calculated with the Mann–Whitney U test.

[3] = set-up: method as in PMID 19348755; settings: aggregated form; cited from earlier work
NTD of NCR1 [4] = target: T1, NTD of NCR1; test: Fluorescence binding assay of NBD-lipids titrated with the NTD
Procedure: (§1) To investigate substrate candidates for the NTD of NCR1 and NPC2, biochemical assays were conducted with purified protein and fluorescent lipid analogs. The purified, delipidated NTD was titrated into NBD-tagged phospholipids and sphingolipids, in which the fluorophore is attached to the hydrophobic tail of the lipid molecules. An increase in signal is based on an enhanced molecular brightness of the NBD-moiety upon binding in a more hydrophobic environment ([28]). This increase in fluorescence correlates with the concentration of the NTD (Fig 3A), which can be used to infer the affinity of the NTD to a given NBD-lipid (Fig 3B–G). […] The measured increase in fluorescence of each NBD-lipid upon titrating the protein was used to determine an apparent dissociation constant (KD) according to a one-site binding model (Equation (1)).
(§2) Fluorescence binding assays were conducted using NBD-PC, NBD-PS, NBD-Cer, and NBD-Sph (Avanti Polar Lipids), and NBD-PI (Prof. Bütikofer), dissolved in ethanol. […] NBD-lipids were excited at 460 nm, and the emission spectra were recorded within a range of 490–600 nm. […] Emission spectra for NBD-lipids were measured as a control and subtracted from the sample emission spectra. The control cuvette was measured every time the sample was measured to correct the data for bleaching of NBD-Sph. […]

NPC2 [5] = target: T2, NPC2; test: Fluorescence binding assay of NBD-lipids titrated with NPC2
Procedure: as §1, §2

NTD of NCR1 [6] = target: T1, NTD of NCR1; test: Competitive binding assays of edelfosine and NBD-Sph to the NTD; settings: for Kd: 1 μM NBD-Sph, read-out: apparent KD of NBD-Sph to the NTD
Source text: Edelfosine is a synthetic lysophospholipid with cytotoxic antifungal effects. […] To investigate this, two competitive binding assays with edelfosine and NBD-Sph were designed (Fig 4). For the first assay, the NTD was saturated by NBD-Sph and the addition of edelfosine led to the exchange of the NTD-bound substrate, causing a drop in NBD-Sph fluorescence by about 50% (Fig 4A). […] To further evaluate the capability of NBD-Sph to participate in micelle formation, each emission spectrum was normalized with varying concentrations of edelfosine (Fig 4B). […] The shift in the wavelength of the emission peaks indicates a change in the environment of the fluorophore ([48], [49], [50]), likely indicating the transition of NBD-Sph from being free in solution to being incorporated into mixed micelles with edelfosine. Initially, emission peaks at ∼530 nm are observed, assigned to be NTD and NBD-Sph complexes (Fig 4C). […] Similarly, for binding of substrates at higher concentrations than their CMC, this binding assay is rather complex because of edelfosine exceeding its CMC. […] Because of these restrictions, the inhibitory constant for edelfosine is referred to as apparent, rather than a real, inhibitor constant (KI).
Based on the above observations, fixed amounts of edelfosine were added to NBD-Sph before titrating with the NTD in the second assay (Fig 4D).
For measuring the ability of edelfosine to outcompete NBD-Sph, 1 μM NBD-Sph and 1 μM NTD were mixed to form the interaction complex before adding increasing amounts of edelfosine. As a control, edelfosine was titrated into a cuvette containing exclusively NBD-Sph in buffer. To measure the competitive binding between NBD-Sph and edelfosine, 1 μM NBD-lipid in Tris buffer was mixed with either 0.1, 0.5, or 0.7 μM edelfosine in the sample cuvette before titration with the NTD.
Before determination of dissociation constants, the measurements were normalized. The protein–lipid binding measurements were normalized to the highest intensity in each dataset. For the competition assay, the data were normalized to the lowest intensity in the dataset to be able to fit all data to Equation (1), the full model for one-site binding for the saturated fraction, f ([27]):(1) RL/Rt=Rt+KD+Lt-Rt+KD+Lt^2-4⋅Rt⋅Lt/2⋅Rt=f
To determine the dissociation constant of edelfosine (referred to as KI) in the competition assay, it can be assumed that the binding is simple and that all added ligand is bound. In this case, the IC50 can be used to calculate a KI using Equation (2) on normalized data:(2) KI=IC50⋅KD/KD+L
The KD is the dissociation constant of the ligand, [L] is the concentration, and IC50 is the concentration of the inhibitor, where half of the ligand is inhibited.

[7] = CMC measurement of NBD-lipids by fluorescence; type: physicochemical; settings: MES buffer pH 5.5, fluorescence 460/530 nm
Procedure: The CMC of NBD-Sph was measured by adding increasing concentrations of NBD-Sph to a cuvette containing MES buffer. Between measurements, the solution was mixed and incubated for 10 min. The highest measured concentration of NBD-Sph was 30 μM.
(§3) To determine the CMC, the sigmoid curve was fitted and adjusted to the normalized data: f(x)=l/1+e^−k⋅(x−x0)+b (3)
(§4) Here, l is the scaling of the y-axis, x0 represents the CMC, k determines the sharpness of the fitted curve, and b is the starting position on the y-axis.

[8] = CMC measurement of edelfosine with Sudan Black B absorbance; type: physicochemical; settings: MES buffer pH 5.5, Sudan Black B absorbance 600 nm, n = 1
Procedure: As edelfosine is not fluorescent, a different approach was used to measure its CMC. The hydrophobic dye, Sudan Black B, was used to stain micelles. The absorption of solutions consisting of MES buffer, Sudan Black, and increasing concentrations of edelfosine was measured using a spectrophotometer (Hitachi U-2010).
as §3, §4

[9] = 20 mol% ergosterol: 1 μM pac-lipid and 13 μM ergosterol

T1 sequence (Q12200 20-249): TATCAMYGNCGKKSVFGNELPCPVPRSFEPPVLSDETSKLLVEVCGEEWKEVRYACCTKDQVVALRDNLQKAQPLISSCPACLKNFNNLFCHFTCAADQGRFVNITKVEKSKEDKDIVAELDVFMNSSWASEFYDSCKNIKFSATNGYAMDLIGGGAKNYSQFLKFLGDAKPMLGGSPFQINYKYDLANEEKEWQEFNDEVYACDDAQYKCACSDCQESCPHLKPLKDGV

SMILES: C#CCCCCOC(=O)CCC(C)C1CCC2C3CC4(N=N4)C4CC(O)CCC4(C)C3CCC12C (centres unmarked) [pacChol]
+UV/−UV ratio (crosslinking with NTD) (NTD of NCR1 [1]): 2.11
+UV/−UV ratio (crosslinking with NPC2) (NPC2 [2]; liposomes with 1.5 mol% pac-lipid (1 μM), 1.5 μM NPC2): 1.91

SMILES: CCCCCCCCCCCCC/C=C/[C@@H](O)[C@@H](N)CO [sphingosine]
pKa [3]: 6.61

SMILES: CC(C)[C@@H](C)/C=C/[C@@H](C)[C@H]1CC[C@H]2C3=CC=C4C[C@@H](O)CC[C@]4(C)[C@H]3CC[C@]12C [Ergosterol, ergosterol]
effect of ergosterol on NPC2 crosslinking with pacChol and pacPC (NPC2 [2]; [9]): does not visibly influence
effect of ergosterol on NPC2 crosslinking with pacSph and pacCer (NPC2 [2]; [9]): trend toward increased crosslinking
effect of ergosterol on NPC2 crosslinking with pacSph and pacCer (NPC2 [2]; 20 mol% ergosterol: 1 μM pac-lipid and 13 μM ergosterol, listed as ergosterol): increased crosslinking

Now from value to molecule, other results behind:

Kd (NTD of NCR1 [4]; pH 5.5, 1 μM NBD-lipid, values for NBD-PC, NBD-PS, NBD-Cer (marked °) are apparent KD, above CMC): ~250 nM and 250 nM
Kd (NTD of NCR1 [4]; pH 7.5, 1 μM NBD-lipid): ~120 nM and 120 nM
Kd (NPC2 [5]; pH 5.5, 1 μM NBD-lipid, values marked ° are apparent KD): ~580 nM and 580 nM
Kd (NPC2 [5]; pH 7.5, 1 μM NBD-lipid): ~530 nM and 530 nM
Kd (NTD of NCR1 [6]; 0.0 μM edelfosine, pH 7.5): 120 nM and ~120 nM
Kd (NTD of NCR1 [6]; 0.1 μM edelfosine, pH 7.5): 120 ± 10 nM
Kd (NTD of NCR1 [6]; 0.5 μM edelfosine, pH 7.5): 160 ± 60 nM
Kd (NTD of NCR1 [6]; 0.7 μM edelfosine, pH 7.5): 210 nM and ~210 nM
critical micelle concentration (CMC) [7]: ~13 µM
SMILES: NC(CO)C(O)C=CCCCCCCCCCCCCCNc1ccc([N+](=O)[O-])c2nonc12 (centres unmarked) [NBD-Sph]

IC50 (NTD of NCR1 [6]; 1 μM NBD-Sph mixed with 1 μM NTD, 0 to 4 μM edelfosine, pH 7.5, read-out: IC50 of edelfosine against NBD-Sph binding to the NTD): 480 nM and 500 nM
drop in NBD-Sph fluorescence on addition of edelfosine (NTD of NCR1 [6]; NTD saturated by NBD-Sph, pH 7.5): about 50%
Ki (NTD of NCR1 [6]; calculated from IC50 with Equation (2), apparent, edelfosine exceeds its CMC, read-out: apparent inhibitor constant (KI)): ~50 nM
critical micelle concentration (CMC) [8]: 0.7 µM and 0.715 µM
SMILES: CCCCCCCCCCCCCCCCCCOCC(COP(=O)([O-])OCC[N+](C)(C)C)OC (centres unmarked) [edelfosine]
effect of edelfosine on NPC2 crosslinking with pac-lipids (NPC2 [2]; fivefold excess: 1 μM pac-lipid and 5 μM edelfosine in liposomes): no noticeable inhibition of crosslinking; also recorded: no noticeable effect
